Experimental data from patent publication US11040981B2, “Pyrrolotriazine compounds and methods of inhibiting TAM kinases” (Syros Pharmaceuticals, Inc., priority 2017, dated 2021).

How the values were obtained:
[1] = molecular target: T1, AXL (Homo sapiens, UniProt P30530); test: TR-FRET kinase activity assay, AXL; format: biochemical; conditions: ATP at Km, 60 minutes
T1 sequence (P30530 26-894): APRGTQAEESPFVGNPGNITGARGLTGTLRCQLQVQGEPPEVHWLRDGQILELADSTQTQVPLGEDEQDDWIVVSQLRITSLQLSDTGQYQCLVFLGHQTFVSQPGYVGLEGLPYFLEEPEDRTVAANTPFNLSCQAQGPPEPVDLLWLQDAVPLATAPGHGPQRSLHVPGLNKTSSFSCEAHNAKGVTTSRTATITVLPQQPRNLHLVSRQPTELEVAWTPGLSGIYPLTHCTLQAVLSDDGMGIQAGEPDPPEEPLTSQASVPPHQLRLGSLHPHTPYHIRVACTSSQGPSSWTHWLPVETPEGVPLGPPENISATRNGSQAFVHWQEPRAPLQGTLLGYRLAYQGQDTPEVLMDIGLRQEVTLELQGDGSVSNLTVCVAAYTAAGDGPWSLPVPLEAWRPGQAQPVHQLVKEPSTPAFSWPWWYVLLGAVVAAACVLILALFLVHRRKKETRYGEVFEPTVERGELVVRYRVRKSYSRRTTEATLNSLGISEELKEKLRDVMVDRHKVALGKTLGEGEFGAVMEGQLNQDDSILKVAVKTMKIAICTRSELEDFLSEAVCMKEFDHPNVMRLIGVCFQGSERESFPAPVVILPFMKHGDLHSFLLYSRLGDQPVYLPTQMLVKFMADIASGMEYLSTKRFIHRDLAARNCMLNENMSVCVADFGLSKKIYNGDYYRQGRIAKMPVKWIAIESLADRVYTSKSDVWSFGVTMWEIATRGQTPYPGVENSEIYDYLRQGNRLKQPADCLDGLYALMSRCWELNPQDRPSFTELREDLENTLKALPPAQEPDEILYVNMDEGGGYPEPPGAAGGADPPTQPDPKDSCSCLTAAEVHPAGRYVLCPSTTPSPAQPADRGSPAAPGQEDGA
Summary of the method: (§1)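 Compounds were tested against each kinase with ATP set at its own Km and a labelled tyrosine peptide substrate. Following one hour at room temperature in buffer containing 10 mM MgCl2 and 1 mM DTT, phosphorylated product was detected by Europium antibody TR-FRET after EDTA quench, and IC50 values were calculated.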

[2] = molecular target: T2, MERTK (Homo sapiens, UniProt Q12866); test: TR-FRET kinase activity assay, MERTK; format: biochemical; conditions: for IC50: TR-FRET activity assay, ATP at Km, 60 minutes, read-out: Mer IC50
T2 sequence (Q12866 21-999): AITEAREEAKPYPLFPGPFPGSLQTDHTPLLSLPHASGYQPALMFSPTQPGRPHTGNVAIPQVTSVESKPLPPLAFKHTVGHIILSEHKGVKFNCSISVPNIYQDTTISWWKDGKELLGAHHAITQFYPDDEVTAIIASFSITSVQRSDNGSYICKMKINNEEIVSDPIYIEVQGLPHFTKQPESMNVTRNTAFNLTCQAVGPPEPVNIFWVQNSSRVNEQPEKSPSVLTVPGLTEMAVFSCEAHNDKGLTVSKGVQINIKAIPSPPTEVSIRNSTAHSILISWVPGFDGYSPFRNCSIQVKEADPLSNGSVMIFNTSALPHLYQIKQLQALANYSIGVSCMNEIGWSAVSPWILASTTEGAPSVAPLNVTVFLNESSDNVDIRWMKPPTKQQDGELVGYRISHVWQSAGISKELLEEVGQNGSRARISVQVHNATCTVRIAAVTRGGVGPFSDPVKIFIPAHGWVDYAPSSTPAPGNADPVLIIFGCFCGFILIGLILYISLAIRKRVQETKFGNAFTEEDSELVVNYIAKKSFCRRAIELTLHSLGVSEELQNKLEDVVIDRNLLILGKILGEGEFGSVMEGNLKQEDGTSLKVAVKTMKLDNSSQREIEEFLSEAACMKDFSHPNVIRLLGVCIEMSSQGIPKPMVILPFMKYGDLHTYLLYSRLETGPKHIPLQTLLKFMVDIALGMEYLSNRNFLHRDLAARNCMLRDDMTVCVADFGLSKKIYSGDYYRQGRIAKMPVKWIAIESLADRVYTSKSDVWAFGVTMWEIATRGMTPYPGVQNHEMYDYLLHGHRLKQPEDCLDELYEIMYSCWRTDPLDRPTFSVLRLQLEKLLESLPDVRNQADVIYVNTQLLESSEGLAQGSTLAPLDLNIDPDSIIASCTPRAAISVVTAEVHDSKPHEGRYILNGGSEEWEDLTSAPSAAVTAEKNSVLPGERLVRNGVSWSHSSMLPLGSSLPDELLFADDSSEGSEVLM
Summary of the method: as §1

[3] = ratio calculated as FLT3 IC50/Mer IC50
[4] = ratio of Mer to FLT3: FLT3 IC50/Mer IC50

Which IC50 [1] does the source give for `COC[C@H](C)Nc1ncc2c(-c3ccnc(N4CCN(S(=O)(=O)C(F)(F)F)CC4)c3)cc([C@H]3CC[C@H](O)CC3)n2n1` [Compound 487] here?
The IC50 was 100 to 1000 nM.

What about the IC50 [2] of the same compound?
The IC50 was at most 100 nM.

What about the “FLT3/Mer ratio (FLT3 IC50/Mer IC50)” value [2, 3] of the same compound?
The value was “+++ (“+++” represents a ratio of >100)”.

Which IC50 [1] does the source give for `COC[C@H](C)Nc1ncc2c(-c3cnn(C4COC4)c3)cc([C@H]3CC[C@@](C)(O)CC3)n2n1` (single isomer, unassigned) [Compound 453] here?
Its IC50 is at most 100 nM.

What about the IC50 [2] of the same compound?
Its IC50 is at most 100 nM.

What about the “FLT3/Mer ratio (FLT3 IC50/Mer IC50)” value [2, 3] of the same compound?
The value was “+++ (“+++” represents a ratio of >100)”.

How did the IC50 [1] turn out when `COC[C@H](C)Nc1ncc2c(-c3ccnc(N4CCOCC4=O)c3)cc([C@H]3CC[C@H](O)CC3)n2n1` [Compound 423] was run?
Its IC50 is at most 100 nM.

And the IC50 [2]?
Its IC50 is at most 100 nM.

What about the “FLT3/Mer ratio (FLT3 IC50/Mer IC50)” value [2, 3] of the same compound?
The value was “+++ (“+++” represents a ratio of >100)”.

`C[C@@H](CC(F)(F)F)Nc1ncc2c(C3=C[C@@H]4CC[C@H](C3)N4)cc([C@H]3CC[C@H](O)CC3)n2n1` [Compound 499] was tested. Which IC50 [1] did it give?
The IC50 was at most 100 nM.

And the IC50 [2]?
The IC50 was at most 100 nM.

And the “FLT3/Mer ratio (FLT3 IC50/Mer IC50)” value [2, 3]?
Its value is “+++ (“+++” represents a ratio of >100)”.

Which results are given for `COC[C@H](C)Nc1ncc2c(-c3ccnc(N4C[C@H]5CC[C@@H](C4)O5)c3)cc([C@H]3CC[C@H](O)CC3)n2n1` [Compound 445]?
IC50 [1]: ≤ 100 nM; IC50 [2]: ≤ 100 nM; FLT3/Mer ratio (FLT3 IC50/Mer IC50) [2, 3]: +++ (“+++” represents a ratio of >100)

For `COC[C@H](C)Nc1ncc2c(-c3cnn(C4COC4)c3)cc(C3CCOCC3)n2n1` [Compound 503], which IC50 [1] is on record?
Its IC50 is 100 to 1000 nM.

What about the IC50 [2] of the same compound?
Its IC50 is at most 100 nM.

And the “FLT3/Mer ratio (FLT3 IC50/Mer IC50)” value [2, 3]?
The value was “+++ (“+++” represents a ratio of >100)”.

How did the IC50 [1] turn out when `CC[C@H](C)Nc1ncc2c(C3CCOCC3)cc([C@H]3CC[C@H](O)CC3)n2n1` [Compound 129, (trans)-4-(2-((S)-sec-butylamino)-5-(tetrahydro-2H-pyran-4-yl)pyrrolo[2,1-f][1,2,4]triazin-7-yl)cyclohexanol] was run?
The IC50 was 100 to 1000 nM.

And the IC50 [2]?
Its IC50 is at most 100 nM.

What about the “FLT3/Mer ratio (FLT3 IC50/Mer IC50)” value [2, 4] of the same compound?
The value was “+++ (“+++” represents a ratio of >100)”.

With `COC[C@H](C)Nc1ncc2c(-c3cnn([C@@H]4CCN(C)C4=O)c3)cc([C@H]3CC[C@H](O)CC3)n2n1` [Compound 471] as the compound, how does the IC50 [1] read?
The IC50 was at most 100 nM.

And the IC50 [2]?
Its IC50 is at most 100 nM.

What about the “FLT3/Mer ratio (FLT3 IC50/Mer IC50)” value [2, 3] of the same compound?
Its value is “+++ (“+++” represents a ratio of >100)”.

What does the source list for `COC[C@H](C)Nc1ncc2c(C3=C[C@H]4CCC(C3)N4C(C)=O)cc([C@H]3CC[C@H](O)CC3)n2n1` [Compound 468]?
IC50 [1]: ≤ 100 nM; IC50 [2]: ≤ 100 nM; FLT3/Mer ratio (FLT3 IC50/Mer IC50) [2, 3]: +++ (“+++” represents a ratio of >100)

For `COC[C@H](C)Nc1ncc2c(C3=C[C@@H]4CC[C@H](C3)N4CC(F)(F)F)cc([C@H]3CC[C@H](O)CC3)n2n1` [Compound 485], which IC50 [1] is on record?
Its IC50 is at most 100 nM.

And the IC50 [2]?
The IC50 was at most 100 nM.

And the “FLT3/Mer ratio (FLT3 IC50/Mer IC50)” value [2, 3]?
The value was “+++ (“+++” represents a ratio of >100)”.

How did the IC50 [1] turn out when `CC[C@H](C)Nc1ncc2c(C3=CCOCC3)cc([C@H]3CC[C@H](O)CC3)n2n1` [Compound 128] was run?
Its IC50 is at most 100 nM.

What about the IC50 [2] of the same compound?
The IC50 was at most 100 nM.

What about the “FLT3/Mer ratio (FLT3 IC50/Mer IC50)” value [2, 4] of the same compound?
The value was “++ (“++” represents a ratio of between 10 and 100)”.

With `COC[C@H](C)Nc1ncc2c(-c3ccnc(N4CCNCC4)c3)cc([C@H]3CC[C@H](O)CC3)n2n1` [Compound 434] as the compound, how does the IC50 [1] read?
The IC50 was at most 100 nM.

What about the IC50 [2] of the same compound?
The IC50 was at most 100 nM.

What about the “FLT3/Mer ratio (FLT3 IC50/Mer IC50)” value [2, 3] of the same compound?
The value was “+++ (“+++” represents a ratio of >100)”.
